Source: patent publication US5225543A, “Receptors method for purification of G protein-linked” (priority 1991, dated 1993)

Tests used:
[1] = biological target: T1, SRIF receptor (GH4 C1 membranes) (Rattus norvegicus, UniProt P30680); assay: Competitive radioligand binding vs [^125 I]Tyr11-S14 on GH4 C1 membranes (FIG. 4); conditions: vs [^125 I]Tyr11-S14; 20 ug GH4 C1 membrane protein, 100,000 cpm (FIG. 4B)
T1 construct: GH4 C1 rat pituitary tumor cells; endogenous in cells; host or cells: GH4 C1 rat pituitary tumor cells (isolated membranes)
T1 sequence (P30680 whole entry): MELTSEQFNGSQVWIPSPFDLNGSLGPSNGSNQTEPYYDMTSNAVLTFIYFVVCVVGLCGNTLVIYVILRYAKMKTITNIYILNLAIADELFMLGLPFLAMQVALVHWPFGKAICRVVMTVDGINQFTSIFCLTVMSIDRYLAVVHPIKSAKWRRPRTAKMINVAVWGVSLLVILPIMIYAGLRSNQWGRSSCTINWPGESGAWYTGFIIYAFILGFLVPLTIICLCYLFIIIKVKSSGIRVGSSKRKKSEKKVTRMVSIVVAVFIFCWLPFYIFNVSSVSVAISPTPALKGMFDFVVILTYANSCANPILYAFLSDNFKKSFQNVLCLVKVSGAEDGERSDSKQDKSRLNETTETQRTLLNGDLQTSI
Procedure: Membrane Isolation--1-8 liter batches of cells at densities of 6-10×10^5 cells/ml are pelleted in conical bottom glass centrifuge bottles (600 or 800 ml; Bellco) at 1,000× g for 5 min. The supernatants are carefully poured off and the cells are resuspended in ice cold homogenization medium (1 mM Na-bicarbonate at pH 7.6, 1 mM EDTA and 1 mM EGTA) containing 0.7% (vol/vol) of the "100×4pase" protease inhibitor cocktail (see below). Twenty ml of homogenization medium is used for every liter of suspension culture. After 5 min. on ice, the hypotonically swollen cells are homogenized with 10 strokes of a tight fitting Dounce homogenizer (Kontes, type A pestle). The homogenate is centrifuged at 1,000× g for 10 min. and the supernatant is removed and kept on ice. The 1,000× g pellet containing residual intact cells, nuclei and DNA is washed by gently homogenizing with 4 strokes with a type B pestle in one half the original volume of homogenization medium and recentrifuging for 10 min. at 1,000× g. The final 1,000× g pellet consists mostly of DNA and is discarded. The 1,000× g supernatants are combined and centrifuged at 20,000× g for 30 min. The 20,000× g pellet is washed twice in 25 mM Tris (pH 7.4), with centrifugation for 25 min. at 20,000 2 g. Final membrane pellets are resuspended in 25 mM Tris buffer to concentrations of 4-10 mg membrane protein/ml. Then the 100× 4pase protease inhibitor cocktails are added to 1% of final volume and aliquots are frozen on dry ice. Membranes are stored at -90° C. until needed. Membrane protein is assayed with the Bradford dye binding assay (Bio-Rad).
Standard Binding Assays--Binding assays are done in a binding buffer containing 50 mM HEPES (pH 7.4), 0.5% BSA and 5 mM MgCl2. The standard assay for [^125 I]SRIF analog binding to GH4 CL membranes, done in 96 well microtiter plates (Dynatech Immulon II Removawell plates), is carried out as follows: 1. Radioligand is diluted in binding buffer+PMSF/Baci to the desired cpm per vol. of 50 μl and then 50 μl aliquots are added to the wells. For non-specific binding samples, 5 μl of 40 μM cold S14 is also added per well. […] Binding is initiated by adding 150 μl per well of membrane diluted to the desired concentration (10-30 ug membrane protein/well) in binding buffer+PMSF/Baci. Plates are then covered with Linbro mylar plate sealers (Flow Labs) and placed on a Dynatech Microshaker II and binding is allowed to proceed at room temperature for 1-2 hours. Binding is stopped by centrifuging the plate for 15 minutes at 2,000×g. The supernatants are dumped off and membrane pellets washed once by addition of 200 μl of ice cold binding buffer, brief shaking and recentrifugation. Finally the individual wells are placed in 12×75 mm tubes and counted in an LKB Gammamaster counter (78% efficiency). […]

[2] = biological target: T1, SRIF receptor (GH4 C1 membranes); assay: Purification method as receptor assay: binding of biotinyl-S28 to GH4 C1 membranes (FIG. 10); conditions: 10 nM B28 in binding step
Procedure: Soluble material is adsorbed to streptavidin-Sepharose for 4 hours and eluted with 100 uM GTP-gamma-S+100 uM EDTA+100 uM EGTA. Then the GTP-gamma-S eluates are incubated overnight with immobilized wheat germ agglutinin (to adsorb glycoproteins, including the receptor).
The WGA-agarose pellets are washed and then boiled in SDS polyacrylamide gel sample buffer (to melt the agarose and solubilize proteins). […] The proteins not bound to WGA are processed separately and also separated by SDS-PAGE (FIG. 10C).

[3] = biological target: T1, SRIF receptor (GH4 C1 membranes); assay: Tracing of SRIF R:L complex with [^125 I]Bio-S28 during purification: membrane binding and solubilization (Table 4)
Procedure: 1. Binding of biotinyl-SRIF to GH4 C1 membranes. The binding step is carried out as described in Section 4 of "Receptor Binding Methods". Incubations are for 1 hour at room temperature. In the standard purification protocol, the binding incubations contain 10 nM […]/[^125 I]Bio-S28 is added as a tracer at levels of 5,000-100,000 cpm per mg of membrane protein. Control incubations contain 10 uM cold S14 to saturate the receptor with non-biotinylated ligand.
2. Solubilization of receptor:ligand complex. This is done as described ("Membrane Solubilization"), with 0.15% deoxycholate:lysolecithin in solubilization buffer containing 0.2 mM MgCl2, to obtain 100,000×g supernatants containing solubilized R:L complex.
(§1) A preparation of SRIF receptor is purified from 17 mg GH4 C1 pituitary cell membranes as described in "Methods: Receptor Purification". Some important features of this experiment are as follows: Two 17 mg samples of membranes are used. Both are incubated with 10^-8 M Bio-S28. However, one sample also receives 10^-5 M non-biotinyl S14 for 23 minutes before addition of any Bio-S28. This serves to block binding of Bio-S28 and creates a control to show non-specific binding of proteins to the streptavidin column. Also, each sample received 1.5×10^8 cpm of [^125 I]Bio-S28 as a tracer. This is added 2-3 minutes before the addition of cold Bio-S28. After a 1-hour binding step, the membranes are washed in binding buffer without BSA and solubilized in solubilization buffer containing 0.15% deoxycholate:lysolecithin and 0.2 mM MgCl2. Each 100,000×g supernatant (17 ml) is incubated with 0.6 ml of streptavidin-agarose for 4 hours at 4°-10° C. The SA-agarose is transferred to a 0.7 cm diameter column, washed and eluted with EDTA/EGTA/GTP-gamma-S as described ("Methods: Receptor Purification").
(§2) Radioligand is followed through the procedure to estimate solubilization of R:L complex and % initial binding of R:L complex to immobilized streptavidin.

[4] = biological target: T2, streptavidin (Streptomyces avidinii, UniProt P22629); assay: Tracing of SRIF R:L complex with [^125 I]Bio-S28 during purification: binding to immobilized streptavidin (Table 4)
T2 construct: purchased Pierce Chemical Co
T2 sequence (P22629 25-183): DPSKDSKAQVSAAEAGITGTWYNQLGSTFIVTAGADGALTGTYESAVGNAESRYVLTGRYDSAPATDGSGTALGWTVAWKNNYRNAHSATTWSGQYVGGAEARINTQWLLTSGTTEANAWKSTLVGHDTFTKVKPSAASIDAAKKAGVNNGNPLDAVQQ
Procedure: 3. Adsorption of solubilized R:L complex to streptavidin. Immobilized streptavidin (streptavidin cross-linked to 6% beaded agarose, Pierce Chemical Co.; "SA-agarose") is washed in solubilization buffer and added to the solubilized membranes as 1/30 of the final volume. This mixture is incubated with constant stirring by end-over-end rotation for 4-5 hours at 4°-10° C. Then the mixture is applied to a column and the non-bound material is washed through. Binding of radioligand to SA-agarose is determined by comparing cpm in the 100,000×g supernatant with that in the column effluent after adsorption to SA-agarose. Finally, the column is washed with 12-15 column volumes of solubilization buffer+0.15% deoxycholate:lysolecithin+1/500 (vol/vol) 100×4pase.
as §1, §2

[5] = 10^-8 M Bio-S28 + 10^-5 M S14 (NSB)
[6] = 10^-8 M Bio-S28, [^125 I]Bio-S28 tracer
[7] = 10^-8 M Bio-S28, [^125 I]Bio-S28 tracer, 4 hours

For “Biotinyl-NH-(Leu8, D-Trp22, Tyr25)SRIF28 [Bio-S28]”, the IC50 [1] was 0.3 nM, the “total specific binding at or near saturation” value [2] was 1.8 pmol and the “CPM initially bound to membranes (NSB)” value [3, 5] was 9,316 CPM. For the same substance, the “CPM solubilized by deoxycholate:lysolecithin (%) (NSB)” value [3, 5] was 73%, the “CPM solubilized by deoxycholate:lysolecithin (NSB)” value [3, 5] was 6,834 CPM and the “CPM initially bound to membranes” value [3, 6] was 59,132 CPM. The “CPM solubilized by deoxycholate:lysolecithin” value [3, 6] was 54,094 CPM, the “CPM solubilized by deoxycholate:lysolecithin (%)” value [3, 6] was 91% and the “Solubilized CPM non-bound to streptavidin (%) (NSB)” value [4, 5] was 15%. The “Solubilized CPM non-bound to streptavidin (NSB)” value [4, 5] was 1,054 CPM, the “Solubilized CPM non-bound to streptavidin” value [4, 7] was 14,960 CPM and the “Solubilized CPM non-bound to streptavidin (%)” value [4, 7] was 28%.
